Measured values as given in patent US10076519B2 (CYTOKINETICS, INC., priority 2010, dated 2018).

test system: rabbit skeletal myofibrils (fast skeletal myofibrils); experiment: Activation of fast skeletal myofibrils (PUMA assay, PK/LDH-coupled ATPase at pCa25); type: biochemical; conditions: AC1.4 determined according to the procedure of Example 39; reported as class symbols
Summary of the method: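 ATPase activity of Triton-washed rabbit skeletal myofibrils, roughly 90% fast fibres, tracked by NADH loss at 340 nm through a PK/LDH-coupled ADP-regenerating system. Calcium set to 25% of maximal activity (pCa25), in PIPES 12 mM pH 6.8 with 2 mM MgCl2 and 1 mM DTT; AC1.4 reported.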

Mean AC1.4 | Structure (SMILES)
C (C=10-20 uM) | CCc1ccc(NCC(C)(C)c2ccc(F)cc2)nn1 [(6-ethylpyridazin-3-yl)[2-(4-fluorophenyl)-2-methylpropyl]amine]
A (A=<1 uM) | CC(C)(CNc1ccc(-c2ccc3[nH]nc(NCCN)c3c2)nn1)c1ccc(F)cc1 [(6-{3-[(2-aminoethyl)amino](1H-indazol-5-yl)}pyridazin-3-yl)[2-(4-fluorophenyl)-2-methylpropyl]amine]
A (A=<1 uM) | NCCNc1n[nH]c2ccc(-c3ccc(NCC4(c5ncccc5F)CCC4)nn3)cc12 [(6-{3-[(2-aminoethyl)amino](1H-indazol-5-yl)}pyridazin-3-yl){[(3-fluoro(2-pyridyl))cyclobutyl]methyl}amine]
C (C=10-20 uM) | CC(C)(CNc1ccc(C(=O)NCc2cc[nH]n2)nn1)c1ccc(F)cc1 [(6-{[2-(4-fluorophenyl)-2-methylpropyl]amino}pyridazin-3-yl)-N-(pyrazol-3-ylmethyl)carboxamide]
C (C=10-20 uM) | CC(C)(CNc1ccc(C(=O)NCC2CCC(=O)N2)nn1)c1ccc(F)cc1 (stereo not drawn) [(6-{[2-(4-fluorophenyl)-2-methylpropyl]amino}pyridazin-3-yl)-N-[(5-oxopyrrolidin-2-yl)methyl]carboxamide]
D (D=>20 uM) | CC(C)(CNc1ccc(C(=O)Nc2ccn[nH]2)nn1)c1ccc(F)cc1 [(6-{[2-(4-fluorophenyl)-2-methylpropyl]amino}pyridazin-3-yl)-N-pyrazol-5-ylcarboxamide]

same assay, conditions: median AC1.4 class, procedure of Example 39

Mean AC1.4 | Structure (SMILES)
C (C=10-20 uM) | Fc1cccnc1C1(Nc2ccc(C3CCCCC3)nn2)CCC1 [(6-cyclohexylpyridazin-3-yl)[(3-fluoro(2-pyridyl))cyclobutyl]amine]
B (B=1-10 uM) | Fc1cccnc1C1(CNc2ccc(C3CCCCC3)nn2)CCC1 [(6-cyclohexylpyridazin-3-yl){[(3-fluoro(2-pyridyl))cyclobutyl]methyl}amine]
D (D=>20 uM) | CCc1ccc(NCC2(c3ncccc3F)CCC2)nn1 [(6-ethylpyridazin-3-yl){[(3-fluoro(2-pyridyl))cyclobutyl]meth-yl}amine]
A (A=<1 uM) | O=C(NCc1cnc(-c2ccc(NCC3(c4ncccc4F)CCC3)nn2)s1)[C@H]1CCCN1 [((2R)pyrrolidin-2-yl)-N-({2-[6-({[(3-fluoro(2-pyridyl))cyclobutyl]methyl}ami-no)pyridazin-3-yl](1,3-thiazol-5-yl)}methyl)carboxamide]
A (A=<1 uM) | O=C(NCc1cnc(-c2ccc(NCC3(c4ncccc4F)CCC3)nn2)s1)[C@H]1C[C@@H](F)CN1 [((2R,4R)-4-fluoropyrrolidin-2-yl)-N-({2-[6-({[(3-fluoro(2-pyridyl))cyclobutyl]methyl}ami-no)pyridazin-3-yl](1,3-thiazol-5-yl)}methyl)carboxamide]
A (A=<1 uM) | O=CN1CC(F)(F)C[C@H]1C(=O)NCc1cnc(-c2ccc(NCC3(c4ncccc4F)CCC3)nn2)s1 [((2S)-4,4-difluoro-1-formylpyrrolidin-2-yl)-N-({2-[6-({[(3-fluoro(2-pyridyl))cyclobutyl]methyl}ami-no)pyridazin-3-yl](1,3-thiazol-5-yl)}methyl)carboxamide]
A (A=<1 uM) | O=C(NCc1cnc(-c2ccc(NCC3(c4ncccc4F)CCC3)nn2)s1)[C@@H]1CC(F)(F)CN1 [((2S)-4,4-difluoropyrrolidin-2-yl)-N-({2-[6-({[(3-fluoro(2-pyridyl))cyclobutyl]methyl}ami-no)pyridazin-3-yl](1,3-thiazol-5-yl)}methyl)carboxamide]
A (A=<1 uM) | CC(=O)N1CCN[C@H](C(=O)NCc2cnc(-c3ccc(NCC4(c5ncccc5F)CCC4)nn3)s2)C1 [((2S)-4-acetylpiperazin-2-yl)-N-({2-[6-({[(3-fluoro(2-pyridyl))cyclobutyl]methyl}ami-no)pyridazin-3-yl](1,3-thiazol-5-yl)}methyl)carboxamide]
A (A=<1 uM) | O=C1CC[C@@H](C(=O)NCc2cnc(-c3ccc(NCC4(c5ncccc5F)CCC4)nn3)s2)N1 [((2S)-5-oxopyrrolidin-2-yl)-N-({2-[6-({[(3-fluoro(2-pyridyl))cyclobutyl]methyl}ami-no)pyridazin-3-yl](1,3-thiazol-5-yl)}methyl)carboxamide]
A (A=<1 uM) | O=C(NCc1cnc(-c2ccc(NCC3(c4ncccc4F)CCC3)nn2)s1)[C@@H]1CCCN1 [((2S)pyrrolidin-2-yl)-N-({2-[6-({[(3-fluoro(2-pyridyl))cyclobutyl]methyl}ami-no)pyridazin-3-yl](1,3-thiazol-5-yl)}methyl)carboxamide]
B (B=1-10 uM) | CC(C)(CNc1ccc(-c2ncc(CNC(=O)[C@@H]3CCCN3)s2)nn1)c1ncccc1F [((2S)pyrrolidin-2-yl)-N-{[2-(6-{[2-(3-fluoro(2-pyridyl))-2-methylpropyl]amino}pyridazin-3-yl)(1,3-thiazol-5-yl)]methyl}carboxamide]
A (A=<1 uM) | O=C(NCc1cnc(-c2ccc(NCC3(c4ncccc4F)CCC3)nn2)s1)[C@@H]1CS(=O)(=O)CCN1 [((3R)-1,1-dioxo(1,4-thiazaperhydroin-3-yl))-N-({2-[6-({[(3-fluoro(2-pyridyl))cyclobutyl]methyl}ami-no)pyridazin-3-yl](1,3-thiazol-5-yl)}methyl)carboxamide]
A (A=<1 uM) | O=C(NCc1cnc(-c2ccc(NCC3(c4ncccc4F)CCC3)nn2)s1)[C@H]1CS(=O)(=O)CCN1 [((3S)-1,1-dioxo(1,4-thiazaperhydroin-3-yl))-N-({2-[6-({[(3-fluoro(2-pyridyl))cyclobutyl]methyl}ami-no)pyridazin-3-yl](1,3-thiazol-5-yl)}methyl)carboxamide]
A (A=<1 uM) | O=C1CC[C@H](C(=O)NCc2cnc(-c3ccc(NCC4(c5ncccc5F)CCC4)nn3)s2)CN1 [((3S)-6-oxo(3-piperidyl))-N-({2-[6-({[(3-fluoro(2-pyridyl))cyclobutyl]methyl}ami-no)pyridazin-3-yl](1,3-thiazol-5-yl)}methyl)carboxamide]
A (A=<1 uM) | O=C1NC[C@@H](C(=O)NCc2cnc(-c3ccc(NCC4(c5ncccc5F)CCC4)nn3)s2)N1 [((4S)-2-oxoimidazolidin-4-yl)-N-({2-[6-({[(3-fluoro(2-pyridyl))cyclobutyl]methyl}ami-no)pyridazin-3-yl](1,3-thiazol-5-yl)}methyl)carboxamide]
A (A=<1 uM) | CC(OC(=O)NC(C)(C)C(=O)NCc1cnc(-c2ccc(NCC3(c4ncccc4F)CCC3)nn2)s1)OC(=O)C(C)C (stereo not drawn) [(N-{1-[N-({2-[6-({[(3-fluoro(2-pyridyl))cyclobutyl]methyl}ami-no)pyridazin-3-yl](1,3-thiazol-5-yl)}methyl)carbamoyl]-isopropyl}carbamoyloxy)ethyl 2-methylpropanoate]
A (A=<1 uM) | NC1(C(=O)NCc2cnc(-c3ccc(NCC4(c5ncccc5F)CCC4)nn3)s2)CC1 [(aminocyclopropyl)-N-({2-[6-({[(3-fluoro(2-pyridyl))cyclobutyl]methyl}ami-no)pyridazin-3-yl](1,3-thiazol-5-yl)}methyl)carboxamide]

same assay, conditions: median AC1.4 reported as class; procedure of Example 39

Mean AC1.4 | Structure (SMILES)
A (A=<1 uM) | O=C(NCc1cnc(-c2ccc(NCC3(c4ncccc4F)CCC3)nn2)s1)[C@@H]1CCN1 [((2S)azetidin-2-yl)-N-({2-[6-({[(3-fluoro(2-pyridyl))cyclobutyl]methyl}ami-no)pyridazin-3-yl](1,3-thiazol-5-yl)}methyl)carboxamide]
